According to patent US5292737A, “N,N'-bis(sulfonamido)-2-amino-4-iminonaphthalen-1-ones and N,N'-bis(amido)-2-amino-4-iminonaphthalen-1-ones” (Sphinx Pharmaceuticals Corporation, priority 1992, dated 1994):

Key:
PKC isoenzyme α = target: T1, PKC isoenzyme α (Homo sapiens, UniProt P17252); assay: Protein kinase C inhibition assay, PKC isoenzyme α; assay type: biochemical; details: read-out: IC50 PKC α
T1 construct: made in house; host or cells: baculovirus-insect cell expression system
Protocol: (§1) A protein kinase C (PKC) assay is designed to duplicate the in vivo conditions required for protein kinase C function. Therefore, pH, salt and cofactor concentrations are similar to physiologic levels. Either lysine rich histone H1 (H1) or Myelin basic protein (Mbp) are used in the assay as the phosphorylation acceptor-protein because they are readily available and serve as good substrates for protein kinase C. Enzyme was prepared from baculovirus-insect cell expression systems.
(§2) In the screening assay, phosphatidylserine (PS) and DAG were co-sonicated to form unilamellar and multilamellar vesicles. The concentration of lipids in the assay were suboptimal to maximize the detection potential of the assay for inhibitors or activators. Potential effector compounds were added to the assay in dimethylsulfoxide at four concentrations to give final inhibitor concentrations of 1, 10, 50, and 150 μM, respectively.
(§3) The assay was started with the addition of enzyme and stopped after 10 min by the addition of 25% trichloroacetic acid (TCA) and 1.0 mg/ml bovine serum albumin (BSA). The radioactive histone product was retained and washed on glass fiber filters that allow the unreacted P-ATP to pass through. The amount of phosphorylation was determined by measuring radioactivity with a scintillation counter. Controls were included in every assay to measure background activity in the absence of enzyme, activity in the absence of lipids, and the maximum enzyme activity with saturating levels of the activator lipids.
(§4) Results of the protein kinase C assay are shown in Table 4 in columns labeled α, βII, γ, δ, ε, and .zeta. which represent various PKC isoenzymes. Results are show as IC50, which is the concentration of test compound needed to inhibit 50% of the protein kinase C activity in controls.

PKC isoenzyme βII = target: T2, PKC isoenzyme βII (Homo sapiens, UniProt P05771); assay: Protein kinase C inhibition assay, PKC isoenzyme βII; assay type: biochemical; details: read-out: IC50 PKC βII
T2 construct: made in house; host or cells: baculovirus-insect cell expression system
T2 sequence (P05771 1-673 isoform P05771-2): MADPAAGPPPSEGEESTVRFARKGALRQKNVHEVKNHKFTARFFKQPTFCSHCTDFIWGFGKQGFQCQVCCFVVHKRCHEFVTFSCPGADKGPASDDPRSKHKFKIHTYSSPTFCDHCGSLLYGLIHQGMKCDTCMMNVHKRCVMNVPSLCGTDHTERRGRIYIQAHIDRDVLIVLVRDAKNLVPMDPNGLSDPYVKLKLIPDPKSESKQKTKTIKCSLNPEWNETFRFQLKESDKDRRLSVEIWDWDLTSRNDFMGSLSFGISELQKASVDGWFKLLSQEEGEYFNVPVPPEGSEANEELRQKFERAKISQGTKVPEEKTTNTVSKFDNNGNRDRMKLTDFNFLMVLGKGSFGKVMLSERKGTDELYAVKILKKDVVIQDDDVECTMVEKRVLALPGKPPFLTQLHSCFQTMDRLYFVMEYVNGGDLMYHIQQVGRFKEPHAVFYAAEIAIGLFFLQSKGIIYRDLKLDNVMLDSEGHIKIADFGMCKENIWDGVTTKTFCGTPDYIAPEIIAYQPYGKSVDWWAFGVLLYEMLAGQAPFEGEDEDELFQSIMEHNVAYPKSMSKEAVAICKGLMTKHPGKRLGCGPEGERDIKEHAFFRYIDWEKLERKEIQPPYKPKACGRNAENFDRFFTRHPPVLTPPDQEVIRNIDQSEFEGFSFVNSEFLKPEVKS
Protocol: as §1, §2, §3, §4

PKC isoenzyme γ = target: T3, PKC isoenzyme γ (Homo sapiens, UniProt P05129); assay: Protein kinase C inhibition assay, PKC isoenzyme γ; assay type: biochemical; details: read-out: IC50 PKC γ
T3 construct: made in house; host or cells: baculovirus-insect cell expression system
Protocol: as §1, §2, §3, §4

PKC isoenzyme δ = target: T4, PKC isoenzyme δ (Homo sapiens, UniProt Q05655); assay: Protein kinase C inhibition assay, PKC isoenzyme δ; assay type: biochemical; details: read-out: IC50 PKC δ
T4 construct: made in house; host or cells: baculovirus-insect cell expression system
T4 sequence (Q05655 whole entry): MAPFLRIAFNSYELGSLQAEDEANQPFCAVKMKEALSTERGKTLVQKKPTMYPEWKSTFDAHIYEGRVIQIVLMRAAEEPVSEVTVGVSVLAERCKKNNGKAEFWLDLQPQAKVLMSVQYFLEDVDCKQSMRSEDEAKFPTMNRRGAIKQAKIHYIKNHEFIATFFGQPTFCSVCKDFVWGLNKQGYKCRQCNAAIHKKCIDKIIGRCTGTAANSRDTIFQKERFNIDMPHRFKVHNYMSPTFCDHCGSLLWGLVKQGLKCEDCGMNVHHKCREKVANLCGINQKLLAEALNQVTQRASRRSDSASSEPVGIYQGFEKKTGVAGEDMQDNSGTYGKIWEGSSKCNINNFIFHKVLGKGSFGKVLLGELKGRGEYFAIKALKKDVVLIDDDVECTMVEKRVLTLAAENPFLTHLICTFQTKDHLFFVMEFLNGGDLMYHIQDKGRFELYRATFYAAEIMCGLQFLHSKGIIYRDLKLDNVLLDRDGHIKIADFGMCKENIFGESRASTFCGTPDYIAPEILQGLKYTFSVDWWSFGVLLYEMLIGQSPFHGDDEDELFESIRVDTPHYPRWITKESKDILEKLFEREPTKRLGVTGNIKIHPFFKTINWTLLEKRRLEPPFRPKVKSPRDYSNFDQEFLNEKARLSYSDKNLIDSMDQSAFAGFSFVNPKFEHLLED
Protocol: as §1, §2, §3, §4

PKC isoenzyme ε = target: T5, PKC isoenzyme ε (Homo sapiens, UniProt Q02156); assay: Protein kinase C inhibition assay, PKC isoenzyme ε; assay type: biochemical; details: read-out: IC50 PKC ε
T5 construct: made in house; host or cells: baculovirus-insect cell expression system
T5 sequence (Q02156 1-737): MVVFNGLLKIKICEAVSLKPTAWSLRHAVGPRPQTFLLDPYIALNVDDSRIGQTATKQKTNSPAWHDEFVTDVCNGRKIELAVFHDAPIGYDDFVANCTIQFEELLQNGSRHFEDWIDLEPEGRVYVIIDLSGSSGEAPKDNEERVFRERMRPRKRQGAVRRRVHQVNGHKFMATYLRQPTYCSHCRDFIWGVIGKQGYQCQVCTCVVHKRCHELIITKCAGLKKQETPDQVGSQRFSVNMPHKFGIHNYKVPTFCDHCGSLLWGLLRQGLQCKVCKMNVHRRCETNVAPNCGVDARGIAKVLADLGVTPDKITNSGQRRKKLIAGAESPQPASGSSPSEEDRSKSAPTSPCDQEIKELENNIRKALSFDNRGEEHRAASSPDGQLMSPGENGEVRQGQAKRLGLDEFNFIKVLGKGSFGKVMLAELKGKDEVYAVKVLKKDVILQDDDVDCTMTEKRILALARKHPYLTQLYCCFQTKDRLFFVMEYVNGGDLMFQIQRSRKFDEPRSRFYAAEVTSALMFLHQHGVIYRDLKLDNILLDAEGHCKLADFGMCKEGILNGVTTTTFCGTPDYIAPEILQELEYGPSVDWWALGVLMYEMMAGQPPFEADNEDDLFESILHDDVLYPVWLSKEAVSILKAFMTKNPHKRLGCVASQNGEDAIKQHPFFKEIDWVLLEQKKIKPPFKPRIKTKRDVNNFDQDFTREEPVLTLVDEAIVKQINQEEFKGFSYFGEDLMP
Protocol: as §1, §2, §3, §4

PKC isoenzyme ζ = target: T6, PKC isoenzyme ζ (Homo sapiens, UniProt Q05513); assay: Protein kinase C inhibition assay, PKC isoenzyme ζ; assay type: biochemical; details: read-out: IC50 PKC .zeta.
T6 construct: made in house; host or cells: baculovirus-insect cell expression system
T6 sequence (Q05513 1-592): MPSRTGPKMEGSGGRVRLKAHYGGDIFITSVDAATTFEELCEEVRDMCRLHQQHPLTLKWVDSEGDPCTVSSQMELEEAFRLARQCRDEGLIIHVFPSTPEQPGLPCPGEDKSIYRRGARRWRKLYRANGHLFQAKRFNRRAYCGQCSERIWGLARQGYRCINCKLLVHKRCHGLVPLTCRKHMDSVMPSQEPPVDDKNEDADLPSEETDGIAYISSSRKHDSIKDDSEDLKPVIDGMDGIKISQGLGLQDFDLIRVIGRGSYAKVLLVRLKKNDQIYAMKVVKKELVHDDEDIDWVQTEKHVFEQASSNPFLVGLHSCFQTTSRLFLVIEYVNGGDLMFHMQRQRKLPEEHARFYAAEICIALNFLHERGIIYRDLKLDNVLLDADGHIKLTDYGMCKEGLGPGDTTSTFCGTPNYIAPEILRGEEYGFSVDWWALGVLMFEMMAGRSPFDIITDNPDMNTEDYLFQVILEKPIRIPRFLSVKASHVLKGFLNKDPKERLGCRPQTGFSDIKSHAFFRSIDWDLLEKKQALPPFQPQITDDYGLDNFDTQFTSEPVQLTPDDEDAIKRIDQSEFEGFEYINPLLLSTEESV
Protocol: as §1, §2, §3, §4

[1] = target: cAMP dependent protein kinase (PKA); assay: cAMP Dependent Protein Kinase (PKA) Assay; assay type: biochemical; details: for IC50: catalytic subunit of PKA
Protocol: Compounds found to be inhibitors of protein kinase C were tested for inhibitory activity against cAMP dependent protein kinase (PKA). This enzyme, like protein kinase C, plays an important role in cell-cell communication and is activated by a second messenger, cAMP. Secondary screening against PKA is useful for ascertaining the selectivity of the compounds of the invention.
The catalytic subunit of PKA (Sigma Chemical Company, St. Louis, Mo.) was mixed with buffer before addition of the inhibitor in dimethylsulfoxide (DMSO). Potential inhibitor compounds were added to the assay in dimethylsulfoxide at two concentrations to give final inhibitor concentrations of 30 and 150 μM, respectively. The assay was started by the addition of ^32 P-ATP and the reaction was allowed to proceed for 10 min before stopping with 25% trichloroacetic acid (TCA) and 1.0 mg/ml bovine serum albumin (BSA). Phosphorylated protein was then isolated by filtration and the radioactivity was counted by a beta scintillation counter.

[2] = tested on: normal human epidermal keratinocyte (NHEK) cells; assay: Human Keratinocyte Inhibition (3H TdR Assay); assay type: cell-based; details: Homo sapiens, 24 h incubation, 3H-thymidine
Protocol: Proliferating normal human epidermal keratinocyte (NHEK) cells were obtained in the second passage and grown in keratinocyte growth medium, KGM (Clonetics, Inc.) at 37° C., 5% CO2. The cells were trypsinized (0.25%), centrifuged, counted with a hemocytometer, and seeded at a concentration of 5000 cells in 100 μl well in a 96-well microtiter plate.
After the cells were allowed to attach to the microtiter plate overnight, test agents were titrated to determine the dose response. This was done by adding each test agent dilution in quadruplicate to the plate at 2× final concentration in 100 μl to bring the total volume of each well to 200 μl. Culture media with no test agent added was used as a normal control. Duplicate sets of plates were established.
After twenty-four hours of incubation with test compounds 37° C. and 5% CO2, […] of 0.01 mCi/ml tritiated thymidine (New England Nuclear) was added to each well and allowed to incubate for another 4 hours under the same conditions.
Supernatant was aspirated and discarded and […] of 0.05% trypsin (Gibco) was added to each cell. Cells were checked microscopically to determine detachment from surfaces and then harvested onto glass filters. The filters were then placed in vials to which scintillant was added and counted for one minute each in a scintillation counter.
Determine mean cpm of wells containing test agent (n=4) or KGM control (n=16). Calculate % of control by the formula: [formula]
The IC50, or connection necessary to inhibit 50% of control, of each test agent was determined by plotting % control vs log concentration for each dilution and then linear forecasting the 50% control value onto the X axis on a Quatro Pro computer program. Only regression values with a correlation coefficient greater than 0.9 were considered acceptable.

| IC50 (PKC isoenzyme α) [µM] | IC50 (PKC isoenzyme βII) [µM] | IC50 (PKC isoenzyme γ) [µM] | IC50 (PKC isoenzyme δ) [µM] | IC50 (PKC isoenzyme ε) [µM] | IC50 (PKC isoenzyme ζ) [µM] | IC50 [1] [µM] | effect on PKA activity ([1]; result in words) | Compound | IC50 [2] [µM] |
| --- | --- | --- | --- | --- | --- | --- | --- | --- | --- |
| 113 | > 150 | 24 | > 150 | > 150 | 37 | 111 |  | O=C1C(Nc2ccc(S(=O)(=O)Nc3ncccn3)cc2)=CC(=Nc2ccc(S(=O)(=O)Nc3ncccn3)cc2)c2ccccc21 [Compound 3k] | 1.8 |
| 117 | 138 | 118 | 139 | > 150 | 26 | > 150 | did not effect on PKA activity | CCCCCCCCCCCCCCCCNS(=O)(=O)c1ccc(N=C2C=C(Nc3ccc(S(=O)(=O)NCCCCCCCCCCCCCCCC)cc3)C(=O)c3ccccc32)cc1 [Compound 3o] | 3.8 |
